pEC50: −log10 of the molar value. Where two headings read alike, the source gives them in different places.
What was measured:
[1] = tested on: BT-549 (breast cancer cell line); assay: NCI-60 single-dose assay; type: cell-based, human; conditions: Homo sapiens, BT-549, read-out: growth inhibition (GI%) and cytotoxicity (negative values)
Description: (§1) We first evaluated the cytotoxic activity of tricyclic-pyrrole carboxamides 1–20 using the NCI-60 cell line panel, representing nine different human cancers: leukemia, melanoma, and cancers of the lung, colon, central nervous system (CNS), ovary, kidney, prostate, and breast (the one-dose graph for compounds 1–20 is reported in Supplementary Materials, Figures S43–S62). Compounds 1, 5, 10, 11, 17, and 20 satisfied pre-determined threshold inhibition criteria in a minimum number of cell lines; therefore, they were also tested in the full five-dose assay (Figures S63–S68 in the Supplementary Materials).

[2] = tested on: EKVX (non-small cell lung cancer cell line); assay: NCI-60 single-dose assay; type: cell-based, human; conditions: Homo sapiens, read-out: growth inhibition (GI%) and cytotoxicity (negative values)
Description: as §1

[3] = tested on: LOX IMVI (melanoma cell line); assay: NCI-60 single-dose assay; type: cell-based, human; conditions: Homo sapiens, LOX IMVI, read-out: growth inhibition (GI%) and cytotoxicity (negative values)
Description: as §1

M14 (melanoma cell line) = assay: NCI-60 single-dose assay; type: cell-based, human; conditions: Homo sapiens, M14, read-out: growth inhibition (GI%) and cytotoxicity (negative values)
Description: as §1

[4] = tested on: MALME-3M (melanoma cell line); assay: NCI-60 single-dose assay; type: cell-based, human; conditions: Homo sapiens, Malme-3M, read-out: growth inhibition (GI%) and cytotoxicity (negative values)
Description: as §1

[5] = tested on: MCF-7 (breast cancer cell line); assay: NCI-60 single-dose assay; type: cell-based, human; conditions: Homo sapiens, MCF7, read-out: growth inhibition (GI%) and cytotoxicity (negative values), MCF-7, 10^−5 M
Description: as §1

[6] = tested on: MDA-MB-231/ATCC (breast cancer cell line); assay: NCI-60 single-dose assay; type: cell-based, human; conditions: Homo sapiens, MDA-MB-231, read-out: growth inhibition (GI%) and cytotoxicity (negative values)
Description: as §1

[7] = tested on: MDA-MB-435 (melanoma cell line); assay: NCI-60 single-dose assay; type: cell-based, human; conditions: Homo sapiens, MDA-MB-435, read-out: growth inhibition (GI%) and cytotoxicity (negative values)
Description: as §1

[8] = tested on: MDA-MB-468 (breast cancer cell line); assay: NCI-60 single-dose assay; type: cell-based, human; conditions: Homo sapiens, MDA-MB-468, read-out: growth inhibition (GI%) and cytotoxicity (negative values)
Description: as §1

[9] = tested on: SK-MEL-2 (melanoma cell line); assay: NCI-60 single-dose assay; type: cell-based, human; conditions: Homo sapiens, SK-MEL-2, read-out: growth inhibition (GI%) and cytotoxicity (negative values)
Description: as §1

[10] = tested on: SK-MEL-28 (melanoma cell line); assay: NCI-60 single-dose assay; type: cell-based, human; conditions: Homo sapiens, SK-MEL-28, read-out: growth inhibition (GI%) and cytotoxicity (negative values)
Description: as §1

[11] = tested on: SK-MEL-5 (melanoma cell line); assay: NCI-60 single-dose assay; type: cell-based, human; conditions: human
Description: as §1

[12] = tested on: T-47D (breast cancer cell line); assay: NCI-60 single-dose assay; type: cell-based, human; conditions: Homo sapiens, T47D, read-out: growth inhibition (GI%) and cytotoxicity (negative values)
Description: as §1

[13] = tested on: UACC-257 (melanoma cell line); assay: NCI-60 single-dose assay; type: cell-based, human; conditions: Homo sapiens, UACC-257, read-out: growth inhibition (GI%) and cytotoxicity (negative values)
Description: as §1

[14] = tested on: UACC-62 (melanoma cell line); assay: NCI-60 single-dose assay; type: cell-based, human; conditions: Homo sapiens, UACC-62, read-out: growth inhibition (GI%) and cytotoxicity (negative values)
Description: as §1

NCI-60 cell line panel = assay: NCI-60 single-dose assay, whole panel; type: cell-based, human; conditions: summary over the panel
Description: as §1

[15] = tested on: ZIKV, strain Brazil/2016/INMI1; assay: ZIKV viral yield reduction assay on Huh-7 cells; type: cell-based, Zika virus; conditions: Zika virus, Huh-7, read-out: ZIKV/Huh‐7 EC50
Experimental: We developed a protocol to screen the potential antiviral activity of compounds 1–20 against ZIKV (strain Brazil) on Huh-7 cells, against an H1N1 IAV strain (PR/8/1934) on MDCK cells, and against SARS-CoV-2 (strain Milano) on Vero-TMPRSS. Each compound was tested in duplicate at concentrations of 50 μM, 5 μM, and 0.5 μM. Treatment was applied immediately after infection, and at 24–48 h post-infection, supernatants were collected to assess viral yield, determined as PFU/mL for ZIKV and SARS-CoV-2 or as TCID50/mL for IAV. The test allowed us to evaluate both the antiviral action and the cytotoxicity of each compound, comparing them with reference compounds, such as sofosbuvir for ZIKV and EIDD-1931 for IAV and SARS-CoV-2 (Supplementary Materials, Figures S87–S89).
Viral yield reduction assays for ZIKV and SARS-CoV-2 were performed as previously described by Plicanti. Briefly, 1 × 10^4 Huh-7 cells/well and 1.2 × 10^4 VERO TMPRSS cells/well were infected with ZIKV (MOI 1) or SARS-CoV-2 (MOI 0.05) in a primary 96-well plate for 2 h at 37 °C, 5% CO2. […] Supernatants were collected after 48 h (Huh-7) or 24 h (VERO TMPRSS), diluted 3-fold, and added onto VERO E6 or VERO TMPRSS monolayers, respectively. After 2 h at 37 °C, the inoculum was replaced with 0.75% carboxymethyl cellulose (Merck®, Darmstadt, Germany) in DMEM 2% FBS. After 48–72 h, cells were then fixed with 4% buffered formalin solution (Merck®, Darmstadt, Germany) and stained with 1% crystal violet (Merck®, Darmstadt, Germany). Titres and percentage of inhibition were calculated as follows:
PFU/mL = number of plaques*3^n/vol infection, where n is the dilution where plaques were counted:% inhibition = 100 × (1 − Titre-compound/Titre-untreated control) where Titre-compound and Titre-untreated control are the titres (PFU/mL) obtained on cells treated with compound or DMSO, respectively.
SI was obtained by dividing CC50 by EC50 for each drug/virus/cell line. Compounds with SI values ≥ 10 were active in vitro.

[16] = tested on: IAV strain A/PR/8/34 (H1N1)
in vitro [17] = conditions: dog
in vitro [18] = conditions: African green monkey
[19] = tested on: IAV strain A/PR/8/34 (H1N1); assay: microbe, parasite or virus in culture; conditions: Influenza A virus, MDCK
[20] = Cytotoxicity on uninfected MDCK cells (WST-8, crystal violet); conditions: dog
[21] = Cytotoxicity on uninfected Huh-7 cells (WST-8, crystal violet); conditions: human, uninfected Huh-7 cells
Experimental: The toxicity of the compounds at the same concentration was tested on the same cells in parallel.
Cytotoxic effects were evaluated on uninfected cells using the WST-8 assay (Orangu, Cell Guidance Systems, Cambridge, UK) and the crystal violet assay [23]. […] Huh-7, MDCK, and Vero TMPRSS cells were seeded at 1 × 10^4, 1.5 × 10^4, and 1.2 × 10^4 cells/well, respectively, and incubated for 48 h (Huh-7 and MDCK) or 24 h (VERO TMPRSS), following conditions matching those of the corresponding antiviral assays in terms of timing and culture medium. At the end of incubation, the medium was replaced with a 10% WST-8 solution in DMEM and incubated for 1 h at 37 °C. Optical density (OD) was then measured at 450 nm using a Varioskan LUX plate reader (ThermoFisher Scientific, Milano, Italy). Subsequently, cells were fixed with 4% buffered formalin solution (Merck®, Darmstadt, Germany), stained with 1% crystal violet (Merck®, Darmstadt, Germany), and the dye was solubilized in 30% acetic acid for 30 min under shaking. OD was then measured at 595 nm as an additional readout of cell viability. The percentage of viability at each concentration was calculated using the formula:% viability = 100 × (ODcompound/ODuntreated control) where ODcompound and ODuntreated are the OD of the cells treated with compound or DMSO, respectively.
The CC50 value was determined by nonlinear regression analysis on GraphPad Prism 7 (San Diego, CA, USA).

Compound `O=C(NCCN1CCN(c2ccc(Cl)c(Cl)c2)CC1)c1c(Cl)[nH]c2c1CCCc1ccccc1-2` [Compound 19] has an inhibition at 10 µM [1] of less than 60%, an inhibition at 10 µM [2] of 61.7% and an inhibition at 10 µM [3] of less than 60%. It also gave an inhibition at 10 µM (M14 (melanoma cell line)) of less than 60%, an inhibition at 10 µM [4] of less than 60% and an inhibition at 10 µM [5] of less than 60%. The inhibition at 10 µM [6] was less than 60%, the inhibition at 10 µM [7] was less than 60% and the inhibition at 10 µM [8] was 94.2%. For the same compound, the inhibition at 10 µM [9] was less than 60%, the inhibition at 10 µM [10] was less than 60% and the “growth inhibition (GI%) and cytotoxicity (negative values)” value [11] was −24.28%. It also gave an inhibition at 10 µM [12] of less than 60%, an inhibition at 10 µM [13] of less than 60% and an inhibition at 10 µM [14] of less than 60%. The “growth inhibition (GI%) reached against cancer cell lines of the NCI-60 panel” value (NCI-60 cell line panel) was greater than 90%, the pEC50 [15] was 5.39 and the “selectivity index (SI)” value ([16]; IAV, MDCK cells, CC50/EC50) was 21.36. The “IAV/MDCK SI” value ([16]; preliminary screening) was less than 12.17, the CC50 (in vitro [17]) was less than 50 µM and the CC50 at 24 h (in vitro [18]) was 40.8 µM. For the same compound, the pEC50 ([19]; 48 h) was 5.37, the pEC50 ([19]; read-out: IAV/MDCK EC50) was 5.39 and the CC50 at 48 h [20] was 92.1 µM. The CC50 at 48 h [21] was 12 µM.
